Measured values published in patent US20240287124A1, “PRODRUGS OF 4'-SUBSTITUTED NUCLEOSIDE REVERSE TRANSCRIPTASE INHIBITORS” (Merck Sharp & Dohme LLC, priority 2023, published 2024).
≈ marks a conversion by molar mass, not a printed value.

Key:
[1] = Aqueous solubility in PBS, pH 7.4; assay type: physicochemical; conditions: phosphate buffered saline, pH 7.4, aqueous buffer, thermodynamic from solid, pH 7.4 phosphate buffered saline, 24 hours, amorphous or crystalline material; read-out: Aqu. Solubility
Description: Aqueous solubility of the compounds was determined by suspending excess solid (typically 0.3-0.5 mg) in PBS, pH 7.4, at a concentration of 0.5 mg/mL. The suspension was vortexed for 10-30 seconds to wet the material and stirred at 600 rpm for 24 hours. For analysis by UPLC, 150 μL aliquot sample was transferred into a […] PVDF spin filter and centrifuged at 14,000 rpm for 5 minutes. 100 μL of the filtrate was diluted with 100 μL 1:1 Acetonitrile (ACN):H2O. The resultant samples were analyzed using UPLC and quantified against a standard curve of the compound of interest dissolved in 1:1 ACN:H2O. The retains of the solids were checked by XRPD and PLM to determine if the phase of the material was crystalline or amorphous.

[2] = tested on: HIV-1 wild-type (R8) virus; assay: Viral KINetics in Green cells (VIKING) assay, HIV-1 replication in MT4-GFP reporter cells; assay type: cell-based; conditions: Human immunodeficiency virus 1, 10% normal human serum, MT4-GFP cells, HIV-1 wild-type (R8); read-out: Viking (10% NHS), IC50
Description: Antiviral potency of the compounds was determined based on their ability to block HIV-1 replication in a GFP reporter cell line; this assay is referred to as Viral KINetics in Green cells or VIKING assay. HIV-1 replication was monitored using MT4-gag-GFP clone D3 (hereafter designate MT4-GFP) cells, which are MT4 cells modified to harbor a GFP reporter gene, the expression of which is dependent on the HIV-1 proteins tat and rev. (MT4 is a human T-cell line that is particularly sensitive to HIV-1 replication.) HIV-1 infection of MT4-GFP cells results in GFP expression approximately 24 h post-infection. MT4-GFP cells were maintained at 37° C./5% CO2/90% relative humidity in RPMI 1640 supplemented with 10% fetal bovine serum, 100 U/mL penicillin/streptomycin, and […] G418 to maintain the reporter gene. For infections, MT4-GFP cells were placed in the same medium lacking G418 and infected overnight with HIV-1 wild-type (R8) virus at an approximate multiplicity of infection of 0.01 in the same incubation conditions. Cells were then washed and resuspended in RPMI 1640 containing 10% normal human serum at 2×10^5 cells/mL. Compound plates were prepared by dispensing compounds dissolved in DMSO into wells of 384-well poly D lysine-coated plates (0.2 μl/well) using an ECHO acoustic dispenser. Each compound was tested in a 10-point serial 3-fold dilution (typical final concentrations: 4 μM-0.2 nM). Controls included no inhibitor (DMSO only) and a combination of three antiviral agents as a positive control (efavirenz, indinavir, and an integrase strand transfer inhibitor at final concentrations of 4 μM each). Infected cells were added (50 μL/well) to compound plates and were maintained at 37° C./5% CO2/90% relative humidity. Infected cells were quantified at two time points, approximately 48 h and 72 h post-infection, by counting the number of green cells in each well using an Acumen eX3 scanner. The increase in the number of green cells over ˜24 h period gives the reproductive ratio, R, which is calculated by dividing the number of green cells at 72 h over those at 48 h post-infection. The percent inhibition caused by a test compound is calculated using the following formula: […]
The dose-response curves of each test compound were plotted as % inhibition versus the compound concentration. IC50 values were determined by non-linear 4-parameter fitting of the dose-response curves.

| solubility at 24 h [1] | Compound | IC50 [2] |
| --- | --- | --- |
| 247 µg/mL (≈ 604 µM) | C#C[C@]1(COCOC(=O)C(C)C)O[C@@H](n2ccc3c(N)nc(Cl)nc32)C[C@@H]1O [Example 54, (((2R,3S,5R)-5-(4-amino-2-chloro-7H-pyrrolo[2,3-d]pyrimidin-7-yl)-2-ethynyl-3-hydroxytetrahydrofuran-2-yl)methoxy)methyl isobutyrate] | 1.5 nM |
| < 1 µg/mL | C#C[C@]1(COC(=O)OCc2ccccc2)O[C@@H](n2ccc3c(N)nc(Cl)nc32)C[C@@H]1OC(=O)OCCCCCCCC [Example 213] | 7.9 nM |
| < 1 µg/mL | C#C[C@]1(CO)O[C@@H](n2ccc3c(N)nc(Cl)nc32)C[C@@H]1OC(=O)OCCCCCCC [Example 153] | 3.8 nM |
| 164 µg/mL (≈ 382 µM) | C#C[C@]1(COC(=O)Oc2ccccc2)O[C@@H](n2ccc3c(N)nc(Cl)nc32)C[C@@H]1O [Example 17, ((2R,3S,5R)-5-(4-amino-2-chloro-7H-pyrrolo[2,3-d]pyrimidin-7-yl)-2-ethynyl-3-hydroxytetrahydrofuran-2-yl)methyl phenyl carbonate] | 1.4 nM |
| 145 µg/mL (≈ 343 µM) | C#C[C@]1(COC(=O)OC(CC)CC)O[C@@H](n2ccc3c(N)nc(Cl)nc32)C[C@@H]1O [Example 86] | 13 nM |
| 362 µg/mL (≈ 921 µM) | C#C[C@]1(CO)O[C@@H](n2ccc3c(NC(=O)CCCC)nc(Cl)nc32)C[C@@H]1O [Example 22, N-(2-chloro-7-((2R,4S,5R)-5-ethynyl-4-hydroxy-5-(hydroxymethyl)tetrahydrofuran-2-yl)-7H-pyrrolo[2,3-d]pyrimidin-4-yl)pentanamide] | 199 nM |
| 161 µg/mL (≈ 301 µM) | C#C[C@]1(CO)O[C@@H](n2ccc3c(N)nc(Cl)nc32)C[C@@H]1OC(=O)CCCC[C@@H]1SC[C@@H]2NC(=O)N[C@@H]21 [Example 184] | 57 nM |
| 49 µg/mL (≈ 94.4 µM) | C#C[C@]1(COC(=O)c2ccccn2)O[C@@H](n2ccc3c(N)nc(Cl)nc32)C[C@@H]1OC(=O)c1ccccn1 [Example 49, (2R,3S,5R)-5-(4-amino-2-chloro-7H-pyrrolo[2,3-d]pyrimidin-7-yl)-2-ethynyl-2-((picolinoyloxy)methyl)tetrahydrofuran-3-yl picolinate] | 7.5 nM |
| < 1 µg/mL | C#C[C@]1(CO)O[C@@H](n2ccc3c(N)nc(Cl)nc32)C[C@@H]1OC(=O)CCC12CC3CC(CC(C3)C1)C2 [Example 30] | 3.6 nM |
| < 1 µg/mL | C#C[C@]1(COC(=O)OCc2cccnc2)O[C@@H](n2ccc3c(N)nc(Cl)nc32)C[C@@H]1CC(=O)CCCc1ccccc1 [Example 173] | 6.2 nM |
| 57 µg/mL (≈ 135 µM) | C#C[C@]1(COC(=O)CCCCCC)O[C@@H](n2ccc3c(N)nc(Cl)nc32)C[C@@H]1O [Example 119] | 3.5 nM |
| < 1 µg/mL | C#C[C@]1(COC(=O)OCc2ccccc2)O[C@@H](n2ccc3c(N)nc(Cl)nc32)C[C@@H]1OC(=O)OCCCCCC [Example 68, ((2R,3S,5R)-5-(4-amino-2-chloro-7H-pyrrolo[2,3-d]pyrimidin-7-yl)-2-ethynyl-3-(((hexyloxy)carbonyl)oxy)tetrahydrofuran-2-yl)methylbenzyl carbonate] | 6.5 nM |
| 69 µg/mL (≈ 163 µM) | C#C[C@]1(CO)O[C@@H](n2ccc3c(N)nc(Cl)nc32)C[C@@H]1OC(=O)OC(CC)CC [Example 84] | 129 nM |
| 122 µg/mL (≈ 262 µM) | C#C[C@]1(CO)O[C@@H](n2ccc3c(N)nc(Cl)nc32)C[C@@H]1OC(=O)OCc1oc(=O)oc1C [Example 56, (2R,3S,5R)-5-(4-amino-2-chloro-7H-pyrrolo[2,3-d]pyrimidin-7-yl)-2-ethynyl-2-(hydroxymethyl)tetrahydrofuran-3-yl((5-methyl-2-oxo-1,3-dioxol-4-yl)methyl) carbonate] | 2.3 nM |
